# Assays:
# PEX16 gene expression = PEX16 gene expression in HaCaT keratinocytes treated with PPAR agonists, real-time PCR; type: cell-based, human; conditions: HaCaT cells, 1 μM and 5 μM in 0.1% DMSO, 48 hours
# Method: (§1) HaCaT keratinocytes were treated with vehicle alone (0.1% DMSO) or with specific agonists (1 μM and 5 μM in 0.1% DMSO) of PPARγ-Ciglitazone (Cig), Rosiglitazone (Rosi), Pioglitazone (Pio) and Troglitazone (Tro), PPARα-WY-14363 and PPARδ-GW50516. After 48 hours, PEX16 gene expression was measured by real-time PCR.
# (§2) We directly assessed the role of PPARγ in modulating peroxisomal gene expression by growing HaCat cells (human keratinocyte cell line) in the presence of PPAR agonists (1 μM and 5 μM concentrations in 0.1% DMSO) and monitoring gene expression by real-time PCR (FIG. 5b). The agonists tested were Ciglitazone (Cig), Rosiglitazone (Rosi), Pioglitazone (Pio) and Troglitazone (Tro) specific for PPARγ, WY-14363 specific for PPARα and GW50516 specific for PPARδ. […] We also examined whether expression of the PEX3 gene is modulated by the PPAR agonist Pioglitazone (Pio) in cultured outer root sheath keratinocytes. Cells were grown in the presence or absence of Pio and PEX3 gene expression was monitored by real-time PCR.
# Quantitative real-time RT-PCR. […] The target gene expression in LPP and control samples was quantitated by the comparative CT method as described in the ABI Prism 7700 Sequence Detection System manual (PE Biosystems). […]
# PEX3 gene expression = PEX3 gene expression in cultured outer root sheath (ORS) keratinocytes treated with PPAR agonists, real-time PCR; type: cell-based, human; conditions: for effect on PEX3 gene expression: cultured outer root sheath keratinocytes
# Method: as §1, §2
# (§3) Quantitative real-time RT-PCR. FAM labeled PCR primers and TaqMan hydrolysis probes for all target genes and 18S rRNA were purchased from Perkin-Elmer Applied Biosystems (Foster City, Calif.). Real-time PCR was performed on an ABI Prism 7700 Sequence Detection System (PE Biosystems) according to the recommendation of the manufacturer. The target gene expression in LPP and control samples was quantitated by the comparative CT method as described in the ABI Prism 7700 Sequence Detection System manual (PE Biosystems).
# Effect of PPARg agonists and antagonists on PEXgenes. Human Hair Follicle Outer Root Sheath Cells (ORS cells) were obtained from ScienCell™ (San Diego, Calif.) and grown in Mesenchymal Stem Cell Medium (MSCM) consisting of 500 ml of basal medium, 25 ml of fetal bovine serum, 5 ml of mesenchymal stem cell growth supplement and 5 ml of penicillin/streptomycin solution. HaCaT cells were cultured in Dulbecco's modified Eagle's medium containing 10% fetal bovine serum under 5% CO2 at 37° C. […]
# [1] = tested on: PEX genes (PEX3, PEX16, PMP22); assay: PEX (peroxisomal) gene expression in a human keratocyte cell line / cultured human keratinocytes exposed to PPARγ agonists; type: cell-based; conditions: for expression of peroxisomal genes (PEX3, PEX16, PMP22): qualitative statement, cultured human keratinocytes
# Method: as §3
# Effect of PPARg agonists and antagonists on PEXgenes. Human Hair Follicle Outer Root Sheath Cells (ORS cells) were obtained from ScienCell™ (San Diego, Calif.) and grown in Mesenchymal Stem Cell Medium (MSCM) consisting of 500 ml of basal medium, 25 ml of fetal bovine serum, 5 ml of mesenchymal stem cell growth supplement and 5 ml of penicillin/streptomycin solution. HaCaT cells were cultured in Dulbecco's modified Eagle's medium containing 10% fetal bovine serum under 5% CO2 at 37° C. The different PPAR agonists were added in triplicate in dimethylsulfoxide (<0.1% by volume) for 48 hours to evaluate their effects on PEX gene expression by real-time PCR.
# Patients with LLP = assay: Treatment of patients with lichen planopilaris with low dose Actos; type: in vivo, human; conditions: for inflammatory cells in scalp biopsy histology: one patient, H&E
# Method: Patients were treated with Actos (Pioglitazone), a PPARγ agonist that is currently used to treat diabetes. Patients with LLP were given a low dose of Actos, i.e., less than about 15 mg/daily. […] The histology of scalp biopsy of one of the patients before, after one year of treatment, and after two years of treatment are shown in FIGS. 18-20. […] Therefore, PPAR agonist is effective in reducing symptoms.
SMILES,effect on PEX 16 gene expression (PEX16 gene expression),effect on PEX3 gene expression (PEX3 gene expression),"expression of peroxisomal genes (PEX3, PEX16, PMP22) [1]",also measured
Cc1cc(SCc2sc(-c3ccc(C(F)(F)F)cc3)nc2C)ccc1OCC(=O)O [GW50516],minimal effect,minimal effect,,
Cc1cccc(Nc2cc(Cl)nc(SCC(=O)O)n2)c1C [WY-14363],minimal effect,minimal effect,,
"CC1(COc2ccc(CC3SC(=O)NC3=O)cc2)CCCCC1 (stereo not shown) [Ciglitazone, 5-[4-[(1-methylcyclohexyl)methoxy]benzyl]thiazolidine-2,4-dione]",,,induce the expression,
"CCc1ccc(CCOc2ccc(CC3SC(=O)NC3=O)cc2)nc1 (stereo not shown) [Pioglitazone, 5-[4-[2-(5-ethylpyridin-2-yl)ethoxyl]benzyl]thiazolidine-2,4-dione]",,,induce the expression,"increase in PEX3 gene expression (PEX3 gene expression; outer root sheath keratinocytes, 1 μM, compared to vehicle alone (0.1% DMSO)): 4 fold; itching, burning and pain associated with lichen planopilaries (Patients with LLP; LLP patients, less than about 15 mg/daily, patient-reported): significant decrease; inflammatory cells in scalp biopsy histology (Patients with LLP; after 1 year of treatment): Reduction is already seen; inflammatory cells in scalp biopsy histology (Patients with LLP; at two years of treatment): complete clearing of inflammatory cells"
"Cc1c(C)c2c(c(C)c1O)CCC(C)(COc1ccc(CC3SC(=O)NC3=O)cc1)O2 (single isomer, unassigned; (+)) [Troglitazone, (+)-5[[4-[(3,4-dihydro-6-hydroxy-2,5,7,8-tetramethyl-2H-1-benzopyran-2-yl)methoxy]phenyl]methyl]-2,4-thiazolidinedione]",,,induce the expression,
"CN(CCOc1ccc(CC2SC(=O)NC2=O)cc1)c1ccccn1 (stereo not shown) [Rosiglitazone, 5-[4-[2-(N-methyl-N-(2-pyridyl)amino]ethoxy]benzyl]thiazolidine-2,4-dione]",,,induces the expression,increase in PEX gene expression ([1]; human keratocyte cell line): three-fold increase

# Source: US8796282B2, “Method of treating dermatological disorders” (Case Western Reserve University, priority 2007, dated 2014)
